Where two headings read alike, the source gives them in different places.
Tested on: lung A549
Test: Sulforhodamine B (SRB) assay, lung A549
Assay type: cell-based, human
Conditions: read-out: GI50 Lung A549
Experimental: Human cancer cells were purchased from the American Type Culture Collection (Manassas, Va., USA).
Cells were seeded in 96-well plates in medium with 5% fetal bovine serum. […] Unbound sulforhodamine B was washed out by 1% acetic acid and sulforhodamine B-bound cells were solubilized with 10 mmol/L Trizma base. […] Using the following absorbance measurements, such as time zero (T0), control growth (C), and cell growth in the presence of the drug (Tx), the percentage growth was calculated at each of the compound concentrations levels. Percentage growth inhibition was calculated as […].

[1] = Homo sapiens, A549, Table 1, SRB, 48 h

SMILES | GI50 (Homo sapiens, A549, 48 h) [µM] | also measured
CCN(C(=O)c1cc(C(C)C)c(O)cc1O)c1cnc2ccccc2c1 [Compound 28c, N-ethyl-2,4-dihydroxy-5-isopropyl-N-(quinolin-3-yl)benzamide] |  | GI50 [1]: 0.28 ± 0.05 µM
CC(C)c1cc(C(=O)N(c2ccc3ccn(C)c3c2)C(C)C)c(O)cc1O [Compound 21f, 2,4-dihydroxy-N,5-diisopropyl-N-(1-methyl-1H-indol-6-yl)benzamide] | 0.84 ± 0.04 | 
CCCN(C(=O)c1cc(C(C)C)c(O)cc1O)c1cccc2ccn(C)c12 [Compound 22d, 2,4-dihydroxy-5-isopropyl-N-(1-methyl-1H-indol-7-yl)-N-propylbenzamide] | > 10 | 
CCN(C(=O)c1cc(C(C)C)c(O)cc1O)c1cccnc1OCc1ccccc1 [Compound 34b, N-(2-(benzyloxy)pyridin-3-yl)-N-ethyl-2,4-dihydroxy-5-isopropylbenzamide] |  | GI50 [1]: 0.21 ± 0.01 µM
CCN(C(=O)c1cc(C(C)C)c(O)cc1O)c1ccc2ccn(C)c2c1 [Compound 21d, N-ethyl-2,4-dihydroxy-5-isopropyl-N-(1-methyl-1H-indol-6-yl)benzamide] | 0.09 ± 0.01 | 
CC(C)c1cc(C(=O)N(C)c2cccc3ccn(C)c23)c(O)cc1O [Compound 22b, 2,4-dihydroxy-5-isopropyl-N-methyl-N-(1-methyl-1H-indol-7-yl)benzamide] | > 10 | 
CCN(C(=O)c1cc(C(C)C)c(O)cc1O)c1cccc2ccn(C)c12 [Compound 22c, N-ethyl-2,4-dihydroxy-5-isopropyl-N-(1-methyl-1H-indol-7-yl)benzamide] | > 10 | 
CC(C)c1cc(C(=O)N(C)c2ccc3ccn(C)c3c2)c(O)cc1O [Compound 21c, 2,4-dihydroxy-5-isopropyl-N-methyl-N-(1-methyl-1H-indol-6-yl)benzamide] | 0.1 ± 0.02 | 
CCN(C(=O)c1cc(C(C)C)c(O)cc1O)c1cccnc1C [Compound 34a, N-ethyl-2,4-dihydroxy-5-isopropyl-N-(2-methylpyridin-3-yl)benzamide] |  | GI50 (Table 1, SRB, 48 h): > 10 µM
CC(C)c1cc(C(=O)Nc2cccc3ccn(C)c23)c(O)cc1O [Compound 22a, 2,4-dihydroxy-5-isopropyl-N-(1-methyl-1H-indol-7-yl)benzamide] | > 10 | 
CC(C)c1cc(C(=O)Nc2ccc3ccn(C)c3c2)c(O)cc1O [Compound 21b, 2,4-dihydroxy-5-isopropyl-N-(1-methyl-1H-indol-6-yl)benzamide] | > 10 | 
CCCN(C(=O)c1cc(C(C)C)c(O)cc1O)c1ccc2ccn(C)c2c1 [Compound 21e, 2,4-dihydroxy-5-isopropyl-N-(1-methyl-1H-indol-6-yl)-N-propylbenzamide] | 1.62 ± 0.12 | 
CC(C)c1cc(C(=O)N(c2cccc3ccn(C)c23)C(C)C)c(O)cc1O [Compound 22e, 2,4-dihydroxy-N,5-diisopropyl-N-(1-methyl-1H-indol-7-yl)benzamide] | > 10 | 
CC(C)c1cc(C(=O)Nc2ccc3cc[nH]c3c2)c(O)cc1O [Compound 21a, 2,4-dihydroxy-N-(1H-indol-6-yl)-5-isopropylbenzamide] | 0.3 ± 0.03 | 

Reference: patent publication US11479528B2, “Heat shock protein 90 inhibitors” (TAIPEI MEDICAL UNIVERSITY, priority 2017, dated 2022)
